Results: patent US10272144B2, “Compositions for and methods of treating and preventing targeting tumor associated carbohydrate antigens” (Board of Trustees of the University of Arkansas, priority 2013, dated 2019)
“And” between values parts separate entries of the source, which are not always exact repeats. Equal entries are not always repeated. “Also recorded” adds a separate entry of the source.

How the values were obtained:
HLA-DR = conditions: cited from earlier work
[1] = test system: multiple-antigen peptide (MAP) version of P10s; assay: ELISA of anti-P10s antibodies in sera/plasma of vaccinated subjects; type: in vivo, human; conditions: for Immunized plasma binding to MAP (ELISA): one line per subject
Experimental: IgM and IgG fractions of serum antibodies from the immunized patient bind to MAP form of P10s in ELISA assays. ELISA plates were coated with 1 μg/well of the P10s MAP peptide in carbonate-bicarbonate buffer overnight. Serial dilutions were added after blocking wells in PBS containing 0.5% FBS and 0.2% Tween 20 for 1 h at 37° C. Serum dilutions were incubated for two hours at 37° C. After washing, wells were incubated with HRP-conjugated mouse anti-human IgM and IgG for 1 hour at 37° C., then substrate was added and the reaction was stopped after 20 minutes. Plates were read by an ELISA reader at […]. Titers were estimated from absorbance-versus-dilution curves by linear regression. The intercept of the regression line for each subject's pre-immune serum was defined as the absorbance cutoff for determining end-point titer for that subject, and the dilution where each sample's regression line crossed the subject's absorbance cutoff was defined to be the sample's end-point titer. Extrapolation beyond one dilution below the minimum or above the maximum actual dilutions was not allowed. This procedure normalized each subject's pre-immune titer to be 1:100, and subjects with a 10-fold or greater increase in end-point titer over the 1:100 titer are considered responders.
ELISA plates were coated with MAP version of P10s and reactivity of two-fold serial dilutions of pre- and post-immune sera was detected by HRP-conjugated anti-human IgG (FIG. 7A) and IgM (FIG. 7B). The endpoint titers shown in FIG. 7A and FIG. 7B were estimated from absorbance-versus-dilution curves by linear regression. The intercept of the regression line for each subject's pre-immune serum was the value used as the absorbance cutoff for determining end-point titer for that subject, and the dilution where each sample's regression line crossed the subject's absorbance cutoff was defined to be the sample's end-point titer. Extrapolation beyond one dilution below the minimum or above the maximum actual dilutions was not allowed. This procedure normalized each subject's pre-immune titer to be 1:100.
The presence of anti-P10s antibodies in the sera of patients before and after vaccination was assessed with ELISA. ELISA plates were coated with 1 μg/well of the multiple-antigen peptide (MAP) version of P10s in carbonate-bicarbonate buffer (Sigma-Aldrich, St. Louis, Mo.) overnight. Serial 2-fold dilutions of plasma and serum samples, from 1:100 (dilution step 0) to a final dilution of 1:12800 (dilution step 7), were added after blocking wells with PBS containing 0.5% FBS and 0.2% Tween 20 (Blocking buffer) for 1 h at 37° C. Serum dilutions in blocking buffer were incubated for two hours at 37° C. After washing, wells were incubated with HRP-conjugated mouse anti-human IgM and IgG (Sigma-Aldrich) for 1 hour at 37° C. Then Tetramethylbenzidine substrate (Sigma-Aldrich) was added and the reaction was stopped after 20 minutes. Plates were read using an ELISA reader at […].
The resulting absorbance-versus-dilution curves were used to estimate normalized endpoint titers as follows. (1) A linear regression of absorbance versus dilution step was performed on the serial dilutions of each sample from each subject, in which dilution steps were numbered as described above. (2) The intercept of the regression line for each subject's pre-immune sample was the value used as the absorbance cutoff for determining the endpoint titers of all samples collected from that subject. (3) The dilution step where each sample's regression line crossed the subject's absorbance cutoff was determined and called X(c), and the normalized endpoint titer was estimated from X(c) as Titer=1:(100*2^X(c)). This procedure normalized each subject's pre-immune titer to be 1:100. […]

MCF-10A cells = assay: Cytotoxicity of plasma on MCF-10A; type: cell-based, human; conditions: 10% plasma, 24 hours (up to 72 hours); non-tumorigenic line; FIG. 12
Experimental: Pictures were taken after 24 hours of incubation with 10% plasma of the indicated subjects.
(§1) Medium in control wells contained 10% FBS.

MCF-7 cells = assay: Toxicity against MCF-7 cells; type: cell-based, human; conditions: other experiments
ZR-75-1 cells = assay: Toxicity against ZR-75-1 cells; type: cell-based, human; conditions: other experiments
[2] = test system: cancer cells (HCC1954 and MDA-MB-231); assay: Immunized plasma toxicity on cancer cells (both cell lines); type: cell-based, human; conditions: one line per subject
From the text: as §1

MDA-MB-231 cells [3] = assay: Sensitization of tumor cells to docetaxel toxicity by post-immune serum; type: cell-based, human; conditions: 5 hours pre-incubation, docetaxel 24 hours; IC50 differs from FBS and pre-immune (P 6.21E-08, 0.002); FIG. 9
Experimental: MDA-MB-231 cells were cultured in RPMI medium containing 10% FBS overnight. Medium was then replaced with one that contained either pre-immune serum or post-immune serum. FBS was used as control. After 5 hours of incubation, docetaxel was added in serial dilutions into wells. 24 hours later wells were washed and live cells were fixed, stained and counted. Percentage of survival was calculated as the ratio of cell number at a given drug dose to the cell number at the “0” drug dose. Prism 5 software was used to fit dose response curves using survival data. IC50 of each curve was calculated.
MDA-MB-231 cells were cultured in RPMI medium containing 10% FBS overnight. Medium was then replaced with one that contained pre or post-immune sera. FBS was used as control. After 5 hours of incubation docetaxel was added in serial dilutions into wells. 24 hours later wells were washed and live cells were fixed, stained and counted. Percentage of survival was calculated as the ratio of cell number at a given drug dose to the cell number at the “0” drug dose. Prism 5 software was used to fit dose response curves using survival data. IC50 of each curve was calculated.

HCC1954 cells [4] = assay: Binding of serum IgG to HCC1954 cells (flow cytometry); type: cell-based, human; conditions: week 7 serum, 1:100 dilution; FIG. 14A
Experimental: (§2) HCC1954 cells were harvested with enzyme-free buffer, washed and incubated with pre-immune sera or post-immune sera collected from the patient at Week 7. Binding of IgG antibodies in the sera to HCC1954 cells was visualized with an FITC-conjugated mouse anti-human IgG. […] The dashed line histogram show binding of IgG from pre-immune serum to HCC1954 cells. The solid line histogram show binding of IgG from post-immune serum collected at week 7 to HCC1954 cells. 1:100 dilution of the serum was used for reactivity. FIG. 14B is a bar graph showing that serum from the patient collected 7 weeks post-immunization kills HCC1954 breast cancer cells in vitro. 1×10^4 cells were seeded in wells of 96-well plate in medium containing 10% FBS. […] Medium in control wells contained 10% FBS. Media were refreshed after 24 hours. 48 hours after addition of sera, supernatants were removed, cells fixed and stained with Crystal violet. Percentage of cytotoxicity was calculated based on cell number in control wells. Error bars represent SD based on three replications. The experiment was repeated three times. Two tail Student's t-test was used for comparison of means.

HCC1954 cells [5] = assay: Serum cytotoxicity on HCC1954 cells (Example 5 patient); type: cell-based, human; conditions: week 7 serum, 10%, 48 hours; FIG. 14B
Experimental: as §2

HCC1954 cells [6] = assay: Inhibition of migration of HCC1954 cells (transwell); type: cell-based, human; conditions: week 7 serum, 20 hours in transwells; FIG. 15
Experimental: Cells were starved overnight and then harvested and mixed with either pre-immune serum or postimmune serum. The cell-serum mixtures were incubated in transwells for 20 hours. The cells were then stained and those on the surface were wiped out. Migrated cells were then visualized under a light microscope and counted. Average over three replications with SD are shown.

MDA-MB-231 cells [7] = assay: Apoptosis induction (annexin V/propidium iodide); type: cell-based, human; conditions: overnight incubation with sera; FIG. 16
Experimental: Cells were incubated with 10% FBS (control) or either pre-immune or post-immune sera overnight and then harvested and stained with annexin V-FITC (FL1) and propidium iodide (FL3). Quadrants J4, P4 and Q4 show apoptotic cells in control, pre-immune serum treated and post-immune serum treated cells, respectively.

[8] = test system: stage IV breast cancer patients; assay: Phase I trial: clinical response (disease progression); type: in vivo, human; conditions: one line per subject, concurrent chemotherapy
From the text: The P10s-PADRE vaccine was developed for, inter alia, treatment of breast cancer patients with high risk of disease relapse. In the Phase I trial, research participants were restricted to females with histological or cytological confirmed stage IV breast cancer. Women 18 years of age or older, of all races, with histologically or cytologically confirmed stage IV breast cancer were eligible, and subjects were enrolled after providing written, informed consent. Disease staging was done according to the American Joint Commission on Cancer (AJCC), sixth edition. The following eligibility criteria were used: The cancer may have been newly diagnosed metastatic or relapsed after primary or adjuvant therapy and must not have required a treatment change for 2 months. Treatments with anti-estrogen therapy or chemotherapy were allowed. The chemotherapy regimen could not contain steroids in the pre- or post-supportive-care medications. […] Subjects had to be immunocompetent as measured by responsiveness to two recall antigens by skin testing. […]

NK cells [9] = assay: NK cell activation in vaccinated human patients; type: in vivo; conditions: human patients administered the vaccine
NK cells [10] = assay: NK cell activation in mice; type: in vivo
[11] = test system: metastatic HER2+ Breast Cancer; assay: Clinical course of patient with metastatic HER2+ breast cancer (PET scans); type: in vivo, human; conditions: one patient, on continued Vinorelbine and Trastuzumab; after initial increased PET uptake

Substance: dAla-Lys-CHAla-Val-Ala-Ala-Trp-Thr-Leu-Lys-Ala-Ala-dAla [PADRE]
- number of the 16 most common types of HLA-DR with which complexes are formed (HLA-DR): at least 15

Substance: H-Trp-Arg-Tyr-Thr-Ala-Pro-Val-His-Leu-Gly-Asp-Gly-dAla-Lys-CHAla-Val-Ala-Ala-Trp-Thr-Leu-Lys-Ala-Ala-dAla-NH2 [P10s-PADRE]
- Immunized plasma binding to MAP (ELISA) ([1]; 300 μg peptide per vaccination): Yes
- Immunized plasma binding to MAP (ELISA) ([1]; 500 μg peptide per vaccination): Yes
- normalized endpoint titers, higher dose cohort vs lower dose cohort ([1]; 500 μg vs 300 μg, FIG. 10): higher normalized endpoint titers
- anti-peptide IgG persistence ([1]; Example 5 patient): remained high
- anti-peptide IgM persistence ([1]; Example 5 patient): returned back to the baseline by week 19
- time course of anti-peptide IgM and IgG ([1]; Example 5 patient, FIG. 13): peaked at week seven
- IgG response to P10s MAP peptide form after immunization ([1]; all six subjects, FIG. 10): persistent IgG response
- IgG and IgM response to the vaccine ([1]; all subjects of Example 3, FIGS. 4, 5): All subjects displayed an IgG and IgM response
- increase of anti-peptide serum IgG normalized endpoint titer at week 7 compared to pre-immune ([1]; subject #2 (300 μg), lowest of range): 31 folds
- increase of anti-peptide serum IgG normalized endpoint titer at week 7 compared to pre-immune ([1]; subjects #5 and #6 (500 μg), highest of range): 256 folds
- persistence of anti-P10s titer ([1]; three subjects evaluated further): starts to drop one year after the last immunization
- toxicity of plasma (MCF-10A cells): No toxicity
- toxicity (MCF-7 cells): no toxicity
- toxicity (ZR-75-1 cells): toxicity was observe
- Immunized plasma toxicity on cancer cells ([2]; 300 μg peptide per vaccination): Yes
- Immunized plasma toxicity on cancer cells ([2]; 500 μg peptide per vaccination, subject #5: high background toxicity in preimmune plasma): Yes (2×) and No†
- effect of pre-incubation with post-immunization serum on docetaxel toxicity (MDA-MB-231 cells [3]): sensitized tumor cells to docetaxel toxicity
- binding of vaccine-induced serum to cells (HCC1954 cells [4]): bound
- cell death on incubation with post-immunization serum (HCC1954 cells [5]): significant stimulation of cell death
- migration of cells (HCC1954 cells [6]): inhibited the migration
- apoptosis (MDA-MB-231 cells [7]): induced apoptosis
- Disease Progression ([8]; 300 μg peptide per vaccination): Stable; also recorded: Progressed
- Disease Progression ([8]; 500 μg peptide per vaccination): Stable
- NK cell activation (NK cells [9]): NK cells were activated
- NK cell activation (NK cells [10]): no NK activation
- lung lesions after vaccination [11]: improvement of their lung lesions
